Results taken from patent US11235001B2, “RUNX inhibitor” (KYOTO UNIVERSITY, priority 2016, dated 2022).
Like-named read-outs stand apart in the source and are kept apart here.

Key:
[1] = test system: A549 cells; assay: Xenograft lung cancer mouse model (A549); assay type: in vivo
[2] = test system: BCR-ABL gene; assay: qRT-PCR of BCR-ABL gene in CML and PhALL cells; assay type: cell-based, human; conditions: 3 μM or 1 μM, 6 hours
Procedure: A total RNA was isolated with RNeasy mini kit (Qiagen) and reverse transcribed with Reverse script kit (TOYOBO) to generate cDNA. Real-time quantitative polymerase chain reaction (PCR) was carried out with 7500 Real-Time PCR System (Applied Biosystems) according to the manufacturer's instructions. Results were normalized to GAPDH levels. Relative expression levels were calculated using the 2-ΔΔCt method.
To BV173 cells, MYL cells, SU-Ph2 cells, and SU/SR cells, 3 μM or 1 μM of Chb-M′ was administered. After 6 hours, a total RNA was extracted from the cells, and then subjected to qRT-PCR (see the above-described “Real-time quantitative PCR (qRT-PCR)”) to quantify the expression levels of BCR-ABL gene. As a control, DMSO was administered. In the figures, the expression levels are shown as values relative to the mRNA level of p210BCR-ABL or the mRNA level of p190BCR-ABL in the DMSO (control)-administered group.

[3] = test system: MLL-ENL leukemia cells; assay: Homing assay of MLL-ENL leukemia cells; assay type: in vivo, mouse; conditions: B6 mice, 320 μg/kg, 6 times over 2 weeks; 24 hours after cell injection
[4] = test system: Her2, p-Her2, SOS1, p-ERK, ERK, p-AKT, AKT; assay: Western blotting of Her2 signalling in MKN45 gastric cancer cells; assay type: cell-based, human; conditions: 48 hours
[5] = test system: PC-3 cells; assay: PI-AnnexinV apoptosis staining, PC-3 cells; assay type: cell-based, human; conditions: PC-3, 3 μM, 48 hours and 72 hours
Procedure: To PC-3 cells, 3 μM Chb-M′ was administered. After 48 hours and 72 hours, the percentage of apoptosis was analyzed by PI-AnnexinV apoptosis staining. As a control, DMSO was administered. As a result, the apoptosis rate was increased depending on the […] of Chb-M′ (FIG. 46).

[6] = test system: MV4-11NR
[7] = test system: PC-3 cells; conditions: read-out: IC50 (μM) in PC-3 cells; PC-3 (p53null/PTEN del/androgen-independent), 48 hours

CN(C)CCCNC(=O)c1cc(NC(=O)c2cc(NC(=O)c3cc(NC(=O)c4cc(NC(=O)CCCNC(=O)c5nc(NC(=O)c6nc(NC(=O)c7cc(NC(=O)c8nc(NC(=O)CCNC(=O)CCCc9ccc(N(CCCl)CCCl)cc9)cn8C)cn7C)cn6C)cn5C)cn4C)cn3C)cn2C)cn1C [Chb-M′]
Effect on the lung cancer model ([1]; A549 xenograft): inhibited the growth
H&E staining of lung tissue (lung cancer cells in pulmonary alveoli) ([1]; day 14 after transplantation): rather diminished
Brightness of luciferase (IVIS), lung ([1]; day 14 after transplantation, after 2 administrations): rather weakened
Bioluminescence signal intensity vs DMSO or gefitinib ([1]; day 21 after transplantation): far lower
Brightness of luciferase (IVIS), lung ([1]; day 21 after transplantation, after total 4 administrations): further weakened
Lengthening of overall survival periods ([1]; mice with gefitinib-resistant A549, 320 μg/kg IV twice a week from day 7): about 2 times
mRNA level of p210BCR-ABL ([2]; BV173 cells): decreased
mRNA level of p210BCR-ABL ([2]; MYL cells): decreased
mRNA level of p190BCR-ABL ([2]; SU-Ph2 cells): decreased
mRNA level of p190BCR-ABL ([2]; SU/SR cells): decreased
Number of MLL-ENL cells in bone marrow vs control group [3]: smaller
Number of leukemia cells in spleen [3]: increased
Expression of SOS1 (protein) ([4]; MKN45, 0.1 μM, 1 μM, or 10 μM): suppressed
Phosphorylation of Her2 ([4]; MKN45, 0.1 μM, 1 μM, or 10 μM): suppressed
Expression of Her2 protein ([4]; MKN45, 1 μM): suppressed
Phosphorylated forms of ERK protein and AKT protein ([4]; MKN45, 1 μM): suppressed
Total amounts of ERK protein and AKT protein ([4]; MKN45, 1 μM): not changed
Apoptosis rate [5]: increased
CI (Fa = 0.5) ([6]; p53mut(+), concomitant use of Chb-M′ and PRIMA-1, Chou-Talalay, CI<1 synergism): 0.380
IC50 ([6]; read-out: IC50 (μM) of Chb-M′ in concomitant use with PRIMA-1 (5 μM), p53mut(+), 48 hours, with 5 μM PRIMA-1): 0.00103 µM
IC50 ([6]; read-out: IC50 (μM) of Chb-M′ single agent administration, p53mut(+), 48 hours): > 100 µM
IC50 [7]: 0.62 µM
